Calls of active or inactive are those of the source. No cut-off for these calls is given here.
How the values were obtained:
Histone deacetylase 8 = target: T1, Histone deacetylase 8 (Homo sapiens, UniProt Q9BY41); experiment: Inhibition of recombinant human HDAC8 using (Abz-SRGK(thio-TFA)FFRR-NH2) as substrate preincubated for 5 mins followed by substrate addition by fluorescence based analysis
T1 sequence (Q9BY41 whole entry): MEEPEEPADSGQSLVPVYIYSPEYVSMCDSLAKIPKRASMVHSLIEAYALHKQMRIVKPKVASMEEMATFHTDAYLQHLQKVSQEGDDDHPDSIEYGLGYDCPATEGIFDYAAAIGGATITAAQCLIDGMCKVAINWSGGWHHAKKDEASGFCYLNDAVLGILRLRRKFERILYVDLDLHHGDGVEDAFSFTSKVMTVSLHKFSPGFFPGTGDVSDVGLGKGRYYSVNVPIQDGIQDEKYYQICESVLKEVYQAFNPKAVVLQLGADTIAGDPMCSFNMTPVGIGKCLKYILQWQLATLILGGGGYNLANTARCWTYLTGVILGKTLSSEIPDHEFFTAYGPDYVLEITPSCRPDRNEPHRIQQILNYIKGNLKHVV

Histone deacetylase 1 [1] = target: T2, Histone deacetylase 1 (Homo sapiens, UniProt Q13547); experiment: Inhibition of recombinant human HDAC1 using p53 (Ac-RHKK(Acetyl)-AMC) as substrate preincubated for 5 mins followed by substrate addition and measured after 90 mins by fluorescence based analysis
HEK293 = experiment: Cytotoxicity against HEK293 cells assessed as reduction in cell viability at 50 uM after 24 hrs by alamar blue assay; type: toxicity, cell-based; settings: human, hek293, 24 h
Histone deacetylase 2 [2] = target: T3, Histone deacetylase 2 (Homo sapiens, UniProt Q92769); experiment: Inhibition of recombinant human HDAC2 using p53 (Ac-RHKK(Acetyl)-AMC) as substrate preincubated for 5 mins followed by substrate addition and measured after 30 mins by fluorescence based analysis
Histone deacetylase 3 = Histone deacetylase 3 (Homo sapiens, UniProt O15379); experiment: Inhibition of recombinant human HDAC3 using p53 (Ac-RHKK(Acetyl)-AMC) as substrate preincubated for 5 mins followed by substrate addition and measured after 30 mins by fluorescence based analysis
Histone deacetylase 1 [3] = target: T2, Histone deacetylase 1; experiment: Inhibition of recombinant human HDAC1 at 1 uM using p53 (Ac-RHKK(Acetyl)-AMC) as substrate preincubated for 5 mins followed by substrate addition and measured after 90 mins by fluorescence based analysis relative to control; settings: time 95.0 min
Histone deacetylase 2 [4] = target: T3, Histone deacetylase 2; experiment: Inhibition of recombinant human HDAC2 at 1 uM using p53 (Ac-RHKK(Acetyl)-AMC) as substrate preincubated for 5 mins followed by substrate addition and measured after 30 mins by fluorescence based analysis relative to control; settings: time 35.0 min
Histone deacetylase 2 [5] = target: T3, Histone deacetylase 2; experiment: Inhibition of recombinant human HDAC2 at 10 uM using p53 (Ac-RHKK(Acetyl)-AMC) as substrate preincubated for 5 mins followed by substrate addition and measured after 30 mins by fluorescence based analysis relative to control; settings: time 35.0 min
[6] = target: T4, Histone deacetylase 8 (Homo sapiens) (UniProt Q9BY41); experiment: Inhibition of recombinant human HDAC8 at 10 uM using (Abz-SRGK(thio-TFA)FFRR-NH2) as substrate preincubated for 5 mins followed by substrate addition by fluorescence based analysis relative to control
T4 sequence (whole entry): T1 sequence (Q9BY41 whole entry)

[7] = target: T4, Histone deacetylase 8 (Homo sapiens); experiment: Inhibition of recombinant human HDAC8 at 1 uM using (Abz-SRGK(thio-TFA)FFRR-NH2) as substrate preincubated for 5 mins followed by substrate addition by fluorescence based analysis relative to control
Histone deacetylase 1 [8] = target: T2, Histone deacetylase 1; experiment: Inhibition of recombinant human HDAC1 at 10 uM using p53 (Ac-RHKK(Acetyl)-AMC) as substrate preincubated for 5 mins followed by substrate addition and measured after 90 mins by fluorescence based analysis relative to control; settings: time 95.0 min
[9] = target: T4, Histone deacetylase 8 (Homo sapiens); experiment: Inhibition of HDAC8 in human Jurkat T cells assessed as increase in H3K27 acetylation at 10 uM after 6 hrs by Western blot analysis; type: cell-based
Histone deacetylase 11 = target: T5, Histone deacetylase 11 (Homo sapiens, UniProt Q96DB2); experiment: Inhibition of recombinant human HDAC11 preincubated for 10 mins followed by substrate addition by fluorescence based analysis
T5 sequence (Q96DB2 whole entry): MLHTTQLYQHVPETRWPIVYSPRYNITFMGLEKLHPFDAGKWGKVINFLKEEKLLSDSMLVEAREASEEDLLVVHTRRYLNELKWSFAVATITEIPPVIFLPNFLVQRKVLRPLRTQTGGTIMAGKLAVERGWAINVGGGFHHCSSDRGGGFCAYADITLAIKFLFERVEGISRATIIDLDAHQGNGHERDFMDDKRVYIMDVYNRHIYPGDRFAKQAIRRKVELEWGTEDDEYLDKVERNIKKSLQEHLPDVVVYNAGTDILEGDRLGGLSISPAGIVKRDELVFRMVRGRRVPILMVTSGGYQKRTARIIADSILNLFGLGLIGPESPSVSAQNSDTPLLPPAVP

[10] = target: T6, Protein deacetylase HDAC6 (Homo sapiens, UniProt Q9UBN7); experiment: Inhibition of recombinant human HDAC6 (unknown origin)
T6 sequence (Q9UBN7 whole entry): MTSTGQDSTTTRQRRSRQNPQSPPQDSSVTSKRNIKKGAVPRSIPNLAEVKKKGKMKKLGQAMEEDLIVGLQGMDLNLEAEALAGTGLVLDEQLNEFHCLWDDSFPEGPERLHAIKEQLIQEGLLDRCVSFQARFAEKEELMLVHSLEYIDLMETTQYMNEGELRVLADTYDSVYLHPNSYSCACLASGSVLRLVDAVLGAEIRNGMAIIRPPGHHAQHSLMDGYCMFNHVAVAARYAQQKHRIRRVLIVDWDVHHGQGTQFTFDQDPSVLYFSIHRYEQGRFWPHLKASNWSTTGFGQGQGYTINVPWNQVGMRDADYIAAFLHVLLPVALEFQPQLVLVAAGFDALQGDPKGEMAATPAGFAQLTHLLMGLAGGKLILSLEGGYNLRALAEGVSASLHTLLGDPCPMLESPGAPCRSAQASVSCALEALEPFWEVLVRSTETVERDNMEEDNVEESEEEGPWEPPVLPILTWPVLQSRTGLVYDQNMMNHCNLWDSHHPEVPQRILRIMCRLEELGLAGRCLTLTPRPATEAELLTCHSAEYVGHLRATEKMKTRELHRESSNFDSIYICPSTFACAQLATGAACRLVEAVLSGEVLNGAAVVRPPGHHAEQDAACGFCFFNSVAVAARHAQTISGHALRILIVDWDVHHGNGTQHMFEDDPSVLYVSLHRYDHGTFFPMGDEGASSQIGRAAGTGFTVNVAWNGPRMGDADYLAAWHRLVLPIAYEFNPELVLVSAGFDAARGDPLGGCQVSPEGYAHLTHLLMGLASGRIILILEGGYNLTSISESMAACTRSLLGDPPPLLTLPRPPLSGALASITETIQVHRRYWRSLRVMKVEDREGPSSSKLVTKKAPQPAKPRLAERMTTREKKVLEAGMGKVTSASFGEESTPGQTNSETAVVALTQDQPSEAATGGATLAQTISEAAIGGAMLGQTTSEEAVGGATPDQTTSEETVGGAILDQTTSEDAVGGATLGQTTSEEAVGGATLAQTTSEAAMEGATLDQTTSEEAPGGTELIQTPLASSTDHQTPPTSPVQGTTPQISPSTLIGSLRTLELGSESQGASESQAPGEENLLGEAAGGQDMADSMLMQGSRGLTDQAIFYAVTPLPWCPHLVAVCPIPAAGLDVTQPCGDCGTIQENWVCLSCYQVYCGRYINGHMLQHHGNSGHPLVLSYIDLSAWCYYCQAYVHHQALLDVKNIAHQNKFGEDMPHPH

Histone deacetylase 4 = Histone deacetylase 4 (Homo sapiens, UniProt P56524); experiment: Inhibition of HDAC4 (unknown origin)
Sequence of Histone deacetylase 4 (P56524 whole entry): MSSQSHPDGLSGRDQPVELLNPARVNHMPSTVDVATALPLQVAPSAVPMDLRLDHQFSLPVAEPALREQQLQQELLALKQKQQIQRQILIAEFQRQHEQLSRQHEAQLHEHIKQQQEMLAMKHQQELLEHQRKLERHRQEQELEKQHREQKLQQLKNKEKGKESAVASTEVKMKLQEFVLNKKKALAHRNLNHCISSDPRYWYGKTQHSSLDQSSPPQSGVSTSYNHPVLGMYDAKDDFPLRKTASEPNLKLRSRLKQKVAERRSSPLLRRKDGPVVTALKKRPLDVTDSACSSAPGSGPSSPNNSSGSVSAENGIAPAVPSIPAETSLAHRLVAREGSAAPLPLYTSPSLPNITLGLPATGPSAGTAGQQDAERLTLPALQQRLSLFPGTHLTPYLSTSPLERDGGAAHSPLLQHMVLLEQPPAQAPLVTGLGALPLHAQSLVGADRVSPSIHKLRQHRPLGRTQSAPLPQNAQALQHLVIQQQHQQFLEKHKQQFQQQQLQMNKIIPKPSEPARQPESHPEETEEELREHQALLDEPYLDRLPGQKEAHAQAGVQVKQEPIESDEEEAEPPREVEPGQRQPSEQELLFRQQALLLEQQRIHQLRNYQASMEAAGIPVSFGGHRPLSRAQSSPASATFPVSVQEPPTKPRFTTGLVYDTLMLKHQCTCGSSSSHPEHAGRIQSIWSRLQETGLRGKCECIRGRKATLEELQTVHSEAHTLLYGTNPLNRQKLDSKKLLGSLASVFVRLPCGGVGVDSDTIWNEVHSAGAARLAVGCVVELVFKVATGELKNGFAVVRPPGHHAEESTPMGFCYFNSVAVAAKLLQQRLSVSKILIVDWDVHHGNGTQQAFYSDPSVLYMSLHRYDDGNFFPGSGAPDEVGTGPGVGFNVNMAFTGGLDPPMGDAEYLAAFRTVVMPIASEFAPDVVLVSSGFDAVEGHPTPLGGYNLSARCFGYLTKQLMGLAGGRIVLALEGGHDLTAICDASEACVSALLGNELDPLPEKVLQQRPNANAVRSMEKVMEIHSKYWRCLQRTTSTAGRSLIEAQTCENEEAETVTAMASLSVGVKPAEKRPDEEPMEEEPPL

Sequence of Histone deacetylase 3 (O15379 whole entry): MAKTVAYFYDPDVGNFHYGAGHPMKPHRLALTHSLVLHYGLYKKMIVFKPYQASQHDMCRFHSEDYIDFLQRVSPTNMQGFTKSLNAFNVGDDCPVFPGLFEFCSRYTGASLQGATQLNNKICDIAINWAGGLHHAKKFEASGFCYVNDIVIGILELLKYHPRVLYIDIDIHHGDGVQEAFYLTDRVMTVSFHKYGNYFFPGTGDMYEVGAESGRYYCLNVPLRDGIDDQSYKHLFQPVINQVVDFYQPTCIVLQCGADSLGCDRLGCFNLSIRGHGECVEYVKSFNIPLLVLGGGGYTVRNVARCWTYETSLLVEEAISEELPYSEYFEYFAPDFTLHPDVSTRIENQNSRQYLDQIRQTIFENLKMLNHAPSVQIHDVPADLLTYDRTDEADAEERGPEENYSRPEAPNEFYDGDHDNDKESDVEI
T3 sequence (Q92769 whole entry): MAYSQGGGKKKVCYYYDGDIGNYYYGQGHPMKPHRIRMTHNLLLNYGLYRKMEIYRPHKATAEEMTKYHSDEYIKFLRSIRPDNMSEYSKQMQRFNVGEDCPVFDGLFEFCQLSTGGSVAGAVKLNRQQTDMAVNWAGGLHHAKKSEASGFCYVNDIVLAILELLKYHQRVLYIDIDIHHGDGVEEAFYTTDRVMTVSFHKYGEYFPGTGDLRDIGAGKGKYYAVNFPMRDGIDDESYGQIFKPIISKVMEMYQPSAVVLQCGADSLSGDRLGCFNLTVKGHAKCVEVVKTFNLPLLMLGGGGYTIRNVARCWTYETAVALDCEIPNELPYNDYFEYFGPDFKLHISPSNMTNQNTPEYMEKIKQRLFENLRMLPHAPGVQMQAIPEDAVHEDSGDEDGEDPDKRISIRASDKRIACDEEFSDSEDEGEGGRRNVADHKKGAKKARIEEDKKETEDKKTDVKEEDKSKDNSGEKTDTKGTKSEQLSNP
T2 sequence (Q13547 whole entry): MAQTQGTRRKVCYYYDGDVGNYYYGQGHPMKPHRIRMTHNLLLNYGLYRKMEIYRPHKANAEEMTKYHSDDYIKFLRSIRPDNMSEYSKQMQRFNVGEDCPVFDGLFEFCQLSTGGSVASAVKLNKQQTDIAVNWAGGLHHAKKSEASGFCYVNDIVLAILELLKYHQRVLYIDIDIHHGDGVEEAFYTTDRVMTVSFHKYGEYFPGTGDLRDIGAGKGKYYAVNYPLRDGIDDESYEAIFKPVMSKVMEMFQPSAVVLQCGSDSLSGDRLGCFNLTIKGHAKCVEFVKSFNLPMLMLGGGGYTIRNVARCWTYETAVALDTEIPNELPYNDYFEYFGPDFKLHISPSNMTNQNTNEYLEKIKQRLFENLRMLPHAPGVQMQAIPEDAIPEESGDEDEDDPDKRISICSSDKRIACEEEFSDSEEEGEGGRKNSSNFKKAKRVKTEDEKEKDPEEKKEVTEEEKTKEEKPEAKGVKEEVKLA

Compound | IC50 (Histone deacetylase 8) | IC50 (Histone deacetylase 1 [1]) | Cell viability (HEK293) | IC50 (Histone deacetylase 2 [2]) | IC50 (Histone deacetylase 3) | inhibition (Histone deacetylase 1 [3]) | inhibition (Histone deacetylase 2 [4]) | inhibition (Histone deacetylase 2 [5]) | inhibition [6] | inhibition [7] | inhibition (Histone deacetylase 1 [8]) | inhibition [9] | IC50 (Histone deacetylase 11) | IC50 [10] | IC50 (Histone deacetylase 4)
CCCCCCNNC(=O)c1ccc(CNC(C)=O)cc1 | 23 nM | 48000 nM | 113.3% | 12000 nM | > 20000 nM | – | – | – | – | – | – | – | – | – | –
CCCNNC(=O)c1cnc(NCc2ccc(Cl)cc2)nc1 | – | – | 83.2% | – | 37 nM | 54% | 61% | 96% | 88% | 62% | 92% | – | – | – | –
CCCNNC(=O)c1cnc(N2CCN(C)CC2)nc1 | 250 nM | 590 nM | 93.6% | 2400 nM | 120 nM | – | – | – | – | – | – | – | – | – | –
CCCCCNNC(=O)c1ccc(-c2ccc(CNC(C)=O)cc2)cc1 | 350 nM | 660 nM | 90.8% | 2000 nM | 1500 nM | – | – | – | – | – | – | – | – | – | –
CCCNNC(=O)c1cnc(NCc2cc(Cl)ccc2Cl)nc1 | – | – | 78.2% | – | 58 nM | 66% | – | – | 83% | 33% | 88% | – | – | – | –
CCCCCCNNC(=O)c1cnc(NCc2cccc3ccccc23)nc1 | 63 nM | 8300 nM | 65.7% | > 20000 nM | > 20000 nM | – | – | – | – | – | – | Active | – | – | –
CCCCCCNNC(=O)c1cnc(N2CCN(Cc3c[nH]c4ccccc34)CC2)nc1 | 5.9 nM | 170 nM | 2.18% | 310 nM | 100 nM | – | – | – | – | – | – | Active | 41 nM | > 20000 nM | > 20000 nM
CCCCCCNNC(=O)c1cnc(N2CCN(CCc3c[nH]c4ccccc34)CC2)nc1 | 13 nM | 860 nM | 47.1% | 1400 nM | 1000 nM | – | – | – | – | – | – | – | – | – | –
CCCCNNC(=O)c1cnc(NCc2ccccc2)nc1 | – | – | 88.9% | – | 200 nM | 61% | 46% | 93% | 94% | 66% | 85% | – | – | – | –
CCCCCCNNC(=O)c1cnc(NCCc2ccccc2)nc1 | 28 nM | 2200 nM | 90.1% | 12000 nM | 7200 nM | – | – | – | – | – | – | Active | – | – | –
CCCNNC(=O)c1ccc(CNC(C)=O)cc1 | – | 1600 nM | 81.2% | 5500 nM | 1600 nM | – | – | – | – | – | – | – | – | – | –
CCCCCCNNC(=O)c1cnc(N2CCN(CCc3cn(C)c4ccccc34)CC2)nc1 | 23 nM | 400 nM | 31.8% | 1200 nM | 1400 nM | – | – | – | – | – | – | Active | – | – | –
CCCCCCNNC(=O)c1cccc(NCc2ccccc2)c1 | 46 nM | > 20000 nM | 71.2% | > 20000 nM | > 20000 nM | – | – | – | – | – | – | – | 8600 nM | > 20000 nM | > 20000 nM
CCCNNC(=O)c1cnc(NCc2ccccc2Cl)nc1 | – | – | 80.7% | – | 60 nM | 71% | 55% | 92% | 87% | 43% | 89% | – | – | – | –
CCCCCCNNC(=O)c1cnc(N2CCN(Cc3cn(C)c4ccccc34)CC2)nc1 | 14 nM | 170 nM | 1.6% | 330 nM | 300 nM | – | – | – | – | – | – | Active | – | – | –
CCCNNC(=O)c1cnc(NCc2cccc3ccccc23)nc1 | – | – | 78.9% | – | 81 nM | 53% | 46% | 93% | 83% | 36% | 91% | – | – | – | –
CCCNNC(=O)c1cnc(NCc2ccccc2)nc1 | 1000 nM | 250 nM | 80.9% | 700 nM | 43.2 nM | – | – | – | – | – | – | – | 2000 nM | > 20000 nM | > 20000 nM
CCCCNNC(=O)c1ccc(-c2ccc(CNC(C)=O)cc2)cc1 | 360 nM | 620 nM | 80.1% | 1100 nM | 350 nM | – | – | – | – | – | – | – | – | – | –
CCCNNC(=O)c1cnc(NCc2ccc(CNC(C)=O)cc2)nc1 | – | 290 nM | 93.1% | 920 nM | 110 nM | – | – | – | – | – | – | Active | – | – | –
CCCCCCNNC(=O)c1cnc(NCc2ccc(CNC(C)=O)cc2)nc1 | 19 nM | 960 nM | 79.4% | 4500 nM | 8500 nM | – | – | – | – | – | – | Active | – | – | –
CCCCCCNNC(=O)c1cnc(NCc2ccccc2)nc1 | 16 nM | 560 nM | 88.4% | 3200 nM | 3000 nM | – | – | – | – | – | – | – | – | – | –
